How the values were obtained:
[1] = set-up: method as in proprietary data not shown; conditions: rat tissue distribution study; ref proprietary data not shown; cited from earlier work
[2] = Intracellular concentration by LC/MS/MS in HepG2 cultures parallel to ROS high-content screening; format: in vitro ADME; conditions: human, HepG2 cells, High content screening medium
Procedure: (§1) To assess the intracellular concentration of lixivaptan and its metabolites, an identical HepG2 culture was established in parallel and cell lysate concentrations of each test article were measured by LC/MS/MS analysis. Intracellular concentrations of the compounds were calculated by correcting for cell lysate volume (100 µL) and the volume of HepG2 cells in each well, which was calculated by multiplying cell count per well by cellular volume per cell (2.85 pl/cell for HepG2). One independent study in triplicate was conducted to assess intracellular concentrations of the test articles for the ROS (high-content imaging) studies.

HepG2 cells [3] = experiment: as above; format: in vitro ADME; conditions: High content screening medium; for CIntracellular Fraction: cell lysate
Procedure: as §1

[4] = Intracellular concentration by LC/MS/MS in HepG2 cultures parallel to Seahorse assay; format: in vitro ADME; conditions: human, HepG2 cells, Seahorse medium
Procedure: (§2) The concentration of test compound at the site of action (i.e. hepatocytes) has been identified as highly influential in the selection of parameter values (7). To assess intracellular concentrations of the five test articles, identical HepG2 cultures were established in parallel and cell lysate concentrations of the test articles were measured by LC/MS/MS analysis. Intracellular concentrations of the test articles were calculated by correcting for cell lysate volume (100 µL) and the volume of HepG2 cells in each well, which was calculated by multiplying cell count per well by cellular volume per cell (2.85 pl/cell). One independent study in duplicate was conducted to assess intracellular concentrations of the test articles for Seahorse studies.

HepG2 cells [5] = experiment: as above; format: in vitro ADME; conditions: Seahorse medium; for CIntracellular Fraction: cell lysate; for CHepatocyte: corrected for lysate and HepG2 cell volume
Procedure: as §2

In the case of `Cc1ccc(F)cc1C(=O)Nc1ccc(C(=O)N2Cc3cccn3Cc3ccccc32)c(Cl)c1` [Lixivaptan, lixivaptan], the measured liver-to-plasma ratio [1] is listed as 17, the Kp at 5 µM ([2]; dose 5 µM) is listed as 17.6 ± 18.4 and the Kp at 10 µM ([2]; dose 10 µM) is listed as 39.7 ± 6.49. For the same compound, the Kp at 25 µM ([2]; dose 25 µM) was 19.9 ± 4.54, the Kp at 40 µM ([2]; dose 40 µM) was 12.9 ± 2.68 and the “CExtracellular Fraction” value (HepG2 cells [3]; dose 0.01 µM) was 0.000 ± 0.000 µM. The CHepatocyte (HepG2 cells [3]; dose 0.01 µM) was 0.000 ± 0.000 µM, the “CIntracellular Fraction” value (HepG2 cells [3]; dose 0.01 µM) was 0.000 ± 0.000 µM and the “CExtracellular Fraction” value (HepG2 cells [3]; dose 0.1 µM) was 0.001 ± 0.001 µM. For the same compound, the CHepatocyte (HepG2 cells [3]; dose 0.1 µM) was 0.000 ± 0.000 µM, the “CIntracellular Fraction” value (HepG2 cells [3]; dose 0.1 µM) was 0.000 ± 0.000 µM and the “CExtracellular Fraction” value (HepG2 cells [3]; dose 0.5 µM) was 0.020 ± 0.001 µM. The CHepatocyte (HepG2 cells [3]; dose 0.5 µM) was 0.000 ± 0.000 µM, the “CIntracellular Fraction” value (HepG2 cells [3]; dose 0.5 µM) was 0.000 ± 0.000 µM and the “CExtracellular Fraction” value (HepG2 cells [3]; dose 1 µM) was 0.047 ± 0.001 µM. The CHepatocyte (HepG2 cells [3]; dose 1 µM) was 0.000 ± 0.000 µM, the “CIntracellular Fraction” value (HepG2 cells [3]; dose 1 µM) was 0.000 ± 0.000 µM and the “CExtracellular Fraction” value (HepG2 cells [3]; dose 5 µM) was 0.345 ± 0.011 µM. For the same compound, the CHepatocyte (HepG2 cells [3]; dose 5 µM) was 6.02 ± 6.30 µM, the “CIntracellular Fraction” value (HepG2 cells [3]; dose 5 µM) was 0.0013 ± 0.0016 µM and the “CExtracellular Fraction” value (HepG2 cells [3]; dose 10 µM) was 0.736 ± 0.055 µM. For the same compound, the CHepatocyte (HepG2 cells [3]; dose 10 µM) was 28.44 ± 5.12 µM, the “CIntracellular Fraction” value (HepG2 cells [3]; dose 10 µM) was 0.0054 ± 0.0032 µM and the “CExtracellular Fraction” value (HepG2 cells [3]; dose 25 µM) was 2.751 ± 0.143 µM. For the same compound, the CHepatocyte (HepG2 cells [3]; dose 25 µM) was 55.57 ± 15.10 µM, the “CIntracellular Fraction” value (HepG2 cells [3]; dose 25 µM) was 0.0093 ± 0.0055 µM and the “CExtracellular Fraction” value (HepG2 cells [3]; dose 40 µM) was 5.773 ± 0.508 µM. For the same compound, the CHepatocyte (HepG2 cells [3]; dose 40 µM) was 71.75 ± 11.05 µM, the “CIntracellular Fraction” value (HepG2 cells [3]; dose 40 µM) was 0.0114 ± 0.0058 µM and the Kp at 0.5 µM ([4]; dose 0.5 µM) was 23.2. It also gave a Kp at 1 µM ([4]; dose 1 µM) of 14.3, a Kp at 5 µM ([4]; dose 5 µM) of 8.02 and a Kp at 10 µM ([4]; dose 10 µM) of 6.35. For the same compound, the Kp at 25 µM ([4]; dose 25 µM) was 4.52, the Kp at 40 µM ([4]; dose 40 µM) was 4.62 and the “CIntracellular Fraction” value (HepG2 cells [5]; dose 0.1 µM) was 0 µM. The CHepatocyte (HepG2 cells [5]; dose 0.1 µM) was 0 µM, the “CIntracellular Fraction” value (HepG2 cells [5]; dose 0.5 µM) was 0.00582 µM and the CHepatocyte (HepG2 cells [5]; dose 0.5 µM) was 11.61 µM. The “CIntracellular Fraction” value (HepG2 cells [5]; dose 1 µM) was 0.00738 µM, the CHepatocyte (HepG2 cells [5]; dose 1 µM) was 14.34 µM and the “CIntracellular Fraction” value (HepG2 cells [5]; dose 5 µM) was 0.0193 µM. The CHepatocyte (HepG2 cells [5]; dose 5 µM) was 40.10 µM, the “CIntracellular Fraction” value (HepG2 cells [5]; dose 10 µM) was 0.0307 µM and the CHepatocyte (HepG2 cells [5]; dose 10 µM) was 63.51 µM. For the same compound, the “CIntracellular Fraction” value (HepG2 cells [5]; dose 25 µM) was 0.0525 µM, the CHepatocyte (HepG2 cells [5]; dose 25 µM) was 112.99 µM and the “CIntracellular Fraction” value (HepG2 cells [5]; dose 40 µM) was 0.0823 µM. For the same compound, the CHepatocyte (HepG2 cells [5]; dose 40 µM) was 184.62 µM.

— PMC6944674, “Comparison of the Hepatotoxic Potential of Two Treatments for Autosomal-Dominant Polycystic Kidney DiseaseUsing Quantitative Systems Toxicology Modeling” (Pharmaceutical Research, 2020)
